Laboratory results reported in patent US4122078A, “Antigens and antibodies of catecholamines” (priority 1975, dated 1978).

Tests used:
[1] = test system: epinephrine antibodies (γ-globulin fraction obtained in Example 2); test: Equilibrium dialysis method, specificity of the epinephrine antibodies; set-up: species or system rabbit; conditions: binding of 3H-DL-epinephrine (10μl of 3.4×10^-5 M) with 10μl of 3.4×10^-3 M compound; antibody 5.5 × 10^-6 M; 25° C; 100 = no compound
Method: The γ-globulin fraction obtained in Example 2 was dialyzed against the phosphate buffered saline and a solution of the final concentration of 0.94mg/ml was performed prepared. The γ-globulin solution was used as the antibody solution in this method. To the phosphate buffered saline used in this procedure, 0.01% of sodium metabisufite(Na2 S2 O5) and 0.015% ethylenediaminetetraacetic acid disodium salt were added.
An equilibrium dialysis apparatus of 2ml capacity was used and 500μl of the antibody solution was poured into one of a pair cell(cell A) and into another cell(cell B), 10μl of the phosphate buffered saline solution of DL-epinephrine labelled with tritium(^3 H) in a concentration of 3.4×10^-5 M and 490μl of phosphate buffered saline were introduced. They were shaked at 25° C to reach equilibrium and then radioactivity of each solution were counted. The difference of each counts was calculated and made as the standard.
Then, 500μl of γ-globulin solution was put in cell A, and in cell B were introduced 10μl of a solution of the concentration of 3.4×10^-3 M of epinephrine or one of other catecholamine or analogue compounds, 10μl of a phosphate buffered saline solution of ^3 H-epinephrine (3.4×10^-5 M) and 480μl of phosphate buffered saline. The solutions were shaked by the same manner as above and after equilibrium, the radioactivity of each solution were counted. The difference was calculated and the relative bindings were calculated from the standard.

antiserum to L-dopa-BSA = test: Ouchterlony method, specificity of antiserum to L-dopa-BSA; type: binding, rabbit; set-up: key: the degree of the precipitate formation were indicated by the signs of +++, ++,+-, and -, in turn; the degree of the precipitate formation were indicated by the signs of +++, ++,+-, and -, in turn; the degree of the precipitate formation were indicated by the signs of +++, ++,+-, and -, in turn; the degree of the precipitate formation were indicated by the signs of +++, ++,+-, and -, in turn; conditions: antigen 1mg/ml; antiserum after removal of antibodies to carrier material
Method: The phosphate buffered saline solution of the conjugate was mixed with an equal volume of complete Freund's adjuvant to prepare a w/o type emulsion. The emulsion was intradermally injected to rabbit foot pads in the amount of 2-3mg of the antigen. After four weeks, phosphate buffered saline solution of the conjugate (1mg) was injected into the marginal vein of the rabbit ear. (This operation can be replaced by injecting subcutaneously the w/o emulsion of phosphate buffered saline solution of the conjugate (1mg) and incomplete Freund's adjuvant). One week after the booster injection, the rabbit were bled and the antisera were obtained.
Agar was dissolved in phosphate buffered saline with warming to yield a final concentration of 1.2% and the solution was spread 2 mm in thickness on a glass plate. After cooling, 7 holes of 2mm diameter were made on the center and corners of a true hexagon with 5 mm side. In the center hole, the antiserum obtained above or diluted thereof to 1/2-1/3 with the phosphate buffered saline was filled. […] Therefore, an equal volume of BSA solution (1mg/ml) was added to the antiserum and the mixture was allowed to stand at 37° C for 1 hour, then at 4° C overnight. […] The resulting solution was passed through a DEAE-cellulose column and the first fraction (gamma globulin fraction,γG-fraction) was collected with examining the absorbance at 280nm. […]

[2] = test system: antiserum to epinephrine-BSA; test: Ouchterlony method, specificity of antiserum to epinephrine-BSA; type: binding, rabbit; set-up: key: the degree of the precipitate formation were indicated by the signs of +++, ++,+-, and -, in turn; the degree of the precipitate formation were indicated by the signs of +++, ++,+-, and -, in turn; the degree of the precipitate formation were indicated by the signs of +++, ++,+-, and -, in turn; the degree of the precipitate formation were indicated by the signs of +++, ++,+-, and -, in turn; conditions: antigen 1mg/ml; antiserum after removal of antibodies to carrier material
Method: (§1) Agar was dissolved in phosphate buffered saline with warming to yield a final concentration of 1.2% and the solution was spread 2 mm in thickness on a glass plate. After cooling, 7 holes of 2mm diameter were made on the center and corners of a true hexagon with 5 mm side. In the center hole, the antiserum obtained above or diluted thereof to 1/2-1/3 with the phosphate buffered saline was filled. In the corner holes, the phosphate buffered saline solution of the conjugate (0.5-1.0mg/ml) and BSA were filled alternately. […] Therefore, an equal volume of BSA solution (1mg/ml) was added to the antiserum and the mixture was allowed to stand at 37° C for 1 hour, then at 4° C overnight. The resulted precipitates were removed by centrifuging. […] This antiserum was then dialyzed with 6M urea solution for 15 hours followed with phosphate buffer (0.007M NaH2 PO4,pH 6.3) for 2 days. The resulting solution was passed through a DEAE-cellulose column and the first fraction (gamma globulin fraction,γG-fraction) was collected with examining the absorbance at 280nm. […] The γG-fraction was dialyzed with water and lyophilized for the stock.
Epinephrine specific antiserum was produced and γG-fraction was obtained by the same manner as in Example 1 using the phosphate buffered saline solution of the conjugate and complete Freund's adjuvant. […]

[3] = test system: antiserum to norepinephrine; test: Ouchterlony method, specificity of antiserum to norepinephrine; type: binding, rabbit; set-up: key: the degree of the precipitate formation were indicated by the signs of +++, ++,+-, and -, in turn; the degree of the precipitate formation were indicated by the signs of +++, ++,+-, and -, in turn; the degree of the precipitate formation were indicated by the signs of +++, ++,+-, and -, in turn; the degree of the precipitate formation were indicated by the signs of +++, ++,+-, and -, in turn; conditions: antigen 1mg/ml; antiserum after removal of antibodies to carrier material
Method: as §1
By the same manner as in Example 1, the antiserum of norepinephrine was produced and after removing the BSA-antibody, the γ-globuline fraction was obtained.
(§2) The specificity of antisera to the antigens was examined by the Ouchterlony method. […]

[4] = test system: antiserum to dopamine-BSA; test: Ouchterlony method, specificity of antiserum to dopamine-BSA; type: binding, rabbit; set-up: key: the degree of the precipitate formation were indicated by the signs of +++, ++,+-, and -, in turn; the degree of the precipitate formation were indicated by the signs of +++, ++,+-, and -, in turn; the degree of the precipitate formation were indicated by the signs of +++, ++,+-, and -, in turn; the degree of the precipitate formation were indicated by the signs of +++, ++,+-, and -, in turn; conditions: antigen 1mg/ml; antiserum after removal of antibodies to carrier material
Method: as §1
According to the same manner as in Example 1, the dopamine specific antibody and γG-fraction thereof was obtained.
as §2

Compound	relative binding (%) [1] [%]	also measured
CNCC(O)c1ccc(O)c(OC)c1 (racemic) [DL-methanephrine]	81.7	–
COc1cc(C(O)CN)ccc1O (racemic) [DL-normetanephrine]	97.2	–
O=C(O)Cc1ccc(O)c(O)c1 [3,4-dihydroxyphenylacetic acid]	83.8	–
COc1cc(CC(=O)O)ccc1O [4-hydroxy-3-methoxyphenylacetic acid]	91.7	–
N[C@@H](Cc1ccc(O)c(O)c1)C(=O)O [L-dopa]	90.7	–
CNC[C@H](O)c1ccc(O)c(O)c1 [L-epinephrine]	0	–
CC(C)NC[C@H](O)c1ccc(O)c(O)c1 [L-isoproterenol]	72.9	–
NC[C@H](O)c1ccc(O)c(O)c1 [L-norepinephrine]	54.8	–
NCCc1ccc(O)c(O)c1 [dopamine]	88.0	–
norepinephrine-BSA: 20-30 moles of norepinephrine conjugated to one mole of BSA	–	degree of the precipitate formation, antiserum to L-dopa-BSA (antiserum to L-dopa-BSA): +-; degree of the precipitate formation, antiserum to epinephrine-BSA [2]: +-; degree of the precipitate formation, antiserum to norepinephrine [3]: ++; degree of the precipitate formation, antiserum to dopamine-BSA [4]: +-
